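96-well plates; 48 h exposure; 5 concentrations. Endpoints by linear interpolation between flanking doses. Not reached: highest tested concentration assigned. TGI: total growth inhibition.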
How the values were obtained:
Assay in all cases: NCI anticancer screen, dose series, 48 h
HOP-18 NSCLC = test system: HOP-18 NSCLC
K-562 leukemia = test system: K-562 leukemia
SK-MEL-28 melanoma = test system: SK-MEL-28 melanoma
DLD-1 colon = test system: DLD-1 colon
HOP-92 NSCLC = test system: HOP-92 NSCLC
HCT-15 colon = test system: HCT-15 colon
A549 NSCLC = test system: A549 NSCLC
TK-10 renal = test system: TK-10 renal
KM12 colon = test system: KM12 colon
CAKI-1 renal = test system: CAKI-1 renal
MALME-3M melanoma = test system: MALME-3M melanoma
U251 CNS = test system: U251 CNS
RXF-631 renal = test system: RXF-631 renal
M14 melanoma = test system: M14 melanoma
OVCAR-3 ovarian = test system: OVCAR-3 ovarian
HL-60(TB) leukemia = test system: HL-60(TB) leukemia
SNB-75 CNS = test system: SNB-75 CNS
OVCAR-5 ovarian = test system: OVCAR-5 ovarian
HOP-62 NSCLC = test system: HOP-62 NSCLC
UO-31 renal = test system: UO-31 renal
DMS 273 small cell lung = test system: DMS 273 small cell lung
RXF 393 renal = test system: RXF 393 renal
NCI-H460 lung = test system: NCI-H460 lung
EKVX NSCLC = test system: EKVX NSCLC
CCRF-CEM leukemia = test system: CCRF-CEM leukemia
OVCAR-4 ovarian = test system: OVCAR-4 ovarian
NCI-H522 lung = test system: NCI-H522 lung
MOLT-4 leukemia = test system: MOLT-4 leukemia
LXFL 529 NSCLC = test system: LXFL 529 NSCLC
SN12C renal = test system: SN12C renal
SF-295 CNS = test system: SF-295 CNS
SNB-19 CNS = test system: SNB-19 CNS
SF-268 CNS = test system: SF-268 CNS
A498 renal = test system: A498 renal
KM20L2 colon = test system: KM20L2 colon
OVCAR-8 ovarian = test system: OVCAR-8 ovarian
HCC-2998 colon = test system: HCC-2998 colon
XF 498 CNS = test system: XF 498 CNS
UACC-257 melanoma = test system: UACC-257 melanoma
SR leukemia = test system: SR leukemia
HCT-116 colon = test system: HCT-116 colon
SK-MEL-2 melanoma = test system: SK-MEL-2 melanoma
786-0 renal = test system: 786-0 renal
M19-MEL melanoma = test system: M19-MEL melanoma
SK-MEL-5 melanoma = test system: SK-MEL-5 melanoma
UACC-62 melanoma = test system: UACC-62 melanoma
SK-OV-3 ovarian = test system: SK-OV-3 ovarian
ACHN renal = test system: ACHN renal
SF-539 CNS = test system: SF-539 CNS
IGROV1 ovarian = test system: IGROV1 ovarian
NCI-H23 lung = test system: NCI-H23 lung
HT29 colon = test system: HT29 colon
NCI-H226 lung = test system: NCI-H226 lung
DMS 114 small cell lung = test system: DMS 114 small cell lung
LOX IMVI melanoma = test system: LOX IMVI melanoma
SW-620 colon = test system: SW-620 colon
SNB-78 CNS = test system: SNB-78 CNS
COLO 205 colon = test system: COLO 205 colon
RPMI-8226 leukemia = test system: RPMI-8226 leukemia

Measured: TGI

CCOC(=O)C1C(=O)CN2CCc3c([nH]c4ccccc34)C12C(=O)OCC (configuration not stated)
> 100 µM: HOP-18 NSCLC | K-562 leukemia | SK-MEL-28 melanoma | DLD-1 colon | HOP-92 NSCLC | HCT-15 colon | A549 NSCLC | TK-10 renal | KM12 colon | CAKI-1 renal | MALME-3M melanoma | U251 CNS | RXF-631 renal | M14 melanoma | OVCAR-3 ovarian | HL-60(TB) leukemia | SNB-75 CNS | OVCAR-5 ovarian | HOP-62 NSCLC | UO-31 renal | DMS 273 small cell lung | RXF 393 renal | NCI-H460 lung | EKVX NSCLC | CCRF-CEM leukemia | OVCAR-4 ovarian | NCI-H522 lung | MOLT-4 leukemia | LXFL 529 NSCLC | SN12C renal | SF-295 CNS | SNB-19 CNS | SF-268 CNS | A498 renal | KM20L2 colon | OVCAR-8 ovarian | HCC-2998 colon | XF 498 CNS | UACC-257 melanoma | SR leukemia | HCT-116 colon | SK-MEL-2 melanoma | 786-0 renal | M19-MEL melanoma | SK-MEL-5 melanoma | UACC-62 melanoma | SK-OV-3 ovarian | ACHN renal | SF-539 CNS | IGROV1 ovarian | NCI-H23 lung | HT29 colon | NCI-H226 lung | DMS 114 small cell lung | LOX IMVI melanoma | SW-620 colon | SNB-78 CNS | COLO 205 colon

CCCCCCCCCCCCCCCCCC(=O)NCC(COP(=O)([O-])OCC[N+](C)(C)C)OC (configuration not stated)
31.1 µM: EKVX NSCLC
4.04 µM: U251 CNS
8.14 µM: CAKI-1 renal
2.31 µM: HCC-2998 colon
4.67 µM: RPMI-8226 leukemia
12.9 µM: HT29 colon
3.56 µM: MOLT-4 leukemia
4.72 µM: IGROV1 ovarian
29.5 µM: SK-MEL-5 melanoma
3.24 µM: COLO 205 colon
30.6 µM: SK-MEL-28 melanoma
22.9 µM: SW-620 colon
3.02 µM: TK-10 renal
13 µM: OVCAR-4 ovarian | SF-295 CNS
31.8 µM: SF-539 CNS
2.59 µM: NCI-H460 lung
6.28 µM: M19-MEL melanoma
3.07 µM: 786-0 renal
18.5 µM: HCT-116 colon
14.4 µM: OVCAR-5 ovarian
3.48 µM: SNB-19 CNS
28.7 µM: SK-OV-3 ovarian | NCI-H23 lung
2.93 µM: DMS 273 small cell lung
7.36 µM: SR leukemia
8.17 µM: DLD-1 colon | HOP-92 NSCLC
2.1 µM: RXF 393 renal
10.3 µM: A498 renal
25.5 µM: M14 melanoma
30.7 µM: UO-31 renal
26.8 µM: RXF-631 renal
23.6 µM: OVCAR-8 ovarian
10.2 µM: OVCAR-3 ovarian
8.21 µM: HOP-62 NSCLC
22.7 µM: ACHN renal | DMS 114 small cell lung
30.2 µM: UACC-257 melanoma
5.5 µM: KM20L2 colon
5.89 µM: HCT-15 colon
16.9 µM: UACC-62 melanoma
8.69 µM: NCI-H226 lung
22.4 µM: A549 NSCLC
15.3 µM: SN12C renal
5.66 µM: CCRF-CEM leukemia
2.09 µM: KM12 colon
19.7 µM: LXFL 529 NSCLC
17.5 µM: SF-268 CNS
13.6 µM: SNB-78 CNS
23.3 µM: LOX IMVI melanoma
8.58 µM: XF 498 CNS
15.8 µM: SNB-75 CNS
6.92 µM: HOP-18 NSCLC
2.9 µM: HL-60(TB) leukemia
20.9 µM: MALME-3M melanoma

N#CC1(Cc2ccccc2)CCCCN1C(=O)c1ccccc1 (configuration not stated)
9.11 µM: SK-MEL-2 melanoma
> 100 µM: HOP-18 NSCLC | K-562 leukemia | SK-MEL-28 melanoma | DLD-1 colon | HOP-92 NSCLC | HCT-15 colon | A549 NSCLC | TK-10 renal | KM12 colon | MALME-3M melanoma | U251 CNS | RXF-631 renal | M14 melanoma | OVCAR-3 ovarian | HL-60(TB) leukemia | SNB-75 CNS | OVCAR-5 ovarian | HOP-62 NSCLC | UO-31 renal | DMS 273 small cell lung | RXF 393 renal | NCI-H460 lung | EKVX NSCLC | CCRF-CEM leukemia | OVCAR-4 ovarian | RPMI-8226 leukemia | MOLT-4 leukemia | LXFL 529 NSCLC | SN12C renal | SF-295 CNS | SNB-19 CNS | SF-268 CNS | A498 renal | KM20L2 colon | OVCAR-8 ovarian | HCC-2998 colon | XF 498 CNS | UACC-257 melanoma | SR leukemia | HCT-116 colon | 786-0 renal | M19-MEL melanoma | SK-MEL-5 melanoma | UACC-62 melanoma | SK-OV-3 ovarian | ACHN renal | SF-539 CNS | IGROV1 ovarian | NCI-H23 lung | HT29 colon | DMS 114 small cell lung | LOX IMVI melanoma | SW-620 colon | SNB-78 CNS | COLO 205 colon

NC(=Nc1ccc(S(=O)(=O)Nc2cnc3ccccc3n2)cc1)/N=C(/N)Nc1ccc(Br)cc1
> 100 µM: HOP-18 NSCLC | K-562 leukemia | SK-MEL-28 melanoma | DLD-1 colon | HOP-92 NSCLC | HCT-15 colon | A549 NSCLC | TK-10 renal | KM12 colon | CAKI-1 renal | MALME-3M melanoma | U251 CNS | RXF-631 renal | M14 melanoma | OVCAR-3 ovarian | SNB-75 CNS | OVCAR-5 ovarian | HOP-62 NSCLC | UO-31 renal | DMS 273 small cell lung | NCI-H460 lung | EKVX NSCLC | CCRF-CEM leukemia | OVCAR-4 ovarian | NCI-H522 lung | RPMI-8226 leukemia | MOLT-4 leukemia | LXFL 529 NSCLC | SN12C renal | SF-295 CNS | SNB-19 CNS | SF-268 CNS | A498 renal | KM20L2 colon | OVCAR-8 ovarian | HCC-2998 colon | XF 498 CNS | UACC-257 melanoma | SR leukemia | SK-MEL-2 melanoma | 786-0 renal | M19-MEL melanoma | SK-MEL-5 melanoma | UACC-62 melanoma | SK-OV-3 ovarian | ACHN renal | SF-539 CNS | IGROV1 ovarian | NCI-H23 lung | HT29 colon | NCI-H226 lung | DMS 114 small cell lung | LOX IMVI melanoma | SW-620 colon | SNB-78 CNS | COLO 205 colon

COc1ccc(/C=N/Nc2nc(-c3cc4oc(=O)n(C)c4cc3Cl)cs2)cc1OC
62.3 µM: ACHN renal
62.6 µM: RXF 393 renal
39 µM: DMS 114 small cell lung
88.5 µM: SN12C renal | XF 498 CNS
51 µM: IGROV1 ovarian
14.7 µM: SK-MEL-5 melanoma
91.8 µM: HCT-15 colon
36.2 µM: A549 NSCLC
31.9 µM: OVCAR-4 ovarian
69.5 µM: SNB-75 CNS
> 100 µM: HOP-18 NSCLC | K-562 leukemia | SK-MEL-28 melanoma | DLD-1 colon | TK-10 renal | KM12 colon | CAKI-1 renal | MALME-3M melanoma | U251 CNS | RXF-631 renal | M14 melanoma | OVCAR-3 ovarian | HL-60(TB) leukemia | OVCAR-5 ovarian | HOP-62 NSCLC | UO-31 renal | DMS 273 small cell lung | NCI-H460 lung | EKVX NSCLC | CCRF-CEM leukemia | RPMI-8226 leukemia | MOLT-4 leukemia | LXFL 529 NSCLC | SF-295 CNS | SNB-19 CNS | SF-268 CNS | KM20L2 colon | OVCAR-8 ovarian | HCC-2998 colon | UACC-257 melanoma | SR leukemia | HCT-116 colon | SK-MEL-2 melanoma | 786-0 renal | M19-MEL melanoma | UACC-62 melanoma | SK-OV-3 ovarian | SF-539 CNS | NCI-H23 lung | HT29 colon | LOX IMVI melanoma | SW-620 colon | SNB-78 CNS | COLO 205 colon
77.1 µM: HOP-92 NSCLC

Source: PubChem BioAssay (NCI)
